Measurements reported in ChEMBL document CHEMBL1201862, “PubChem BioAssay data set” (2004).
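Following 48 hours of exposure in 96-well plates, responses at five concentrations were used to interpolate endpoints linearly. The concentration for 50% growth inhibition is given as GI50.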 The source made the active and inactive calls. No stated cut-off is given here; in the data, active = GI50 up to about 1.1 µM and inactive = higher.

What was measured:
Assay in all cases: inhibition of tumour cell growth, NCI panel, 48 h
[1] = test system: CAKI-1
[2] = test system: SF-295
[3] = test system: COLO 205
[4] = test system: MDA-MB-231
[5] = test system: Hs-578T
[6] = test system: NCI/ADR-RES
[7] = test system: KM12
[8] = test system: LOX IMVI
[9] = test system: NCI-H522
[10] = test system: OVCAR-5
[11] = test system: M14
[12] = test system: SW-620
[13] = test system: HOP-62
[14] = test system: HL-60
[15] = test system: NCI-H460
[16] = test system: RXF 393
[17] = test system: DU-145
[18] = test system: M19-MEL
[19] = test system: SF-268
[20] = test system: BT-549

Row | Structure (SMILES) | GI50 [1] | GI50 [2] | GI50 [3] | GI50 [4] | GI50 [5] | GI50 [6] | GI50 [7] | GI50 [8] | GI50 [9] | GI50 [10] | GI50 [11] | GI50 [12] | GI50 [13] | GI50 [14] | GI50 [15] | GI50 [16] | GI50 [17] | GI50 [18] | GI50 [19] | GI50 [20]
1 | C#CCNC(=O)NC(CCCCNC(=O)OCc1ccccc1)C(=O)OCc1ccccc1 (stereo not given) | > 74 µM (inactive) | > 61 µM (inactive) | 21.7 µM (inactive) | > 39.2 µM (inactive) | > 100 µM (inactive) | > 100 µM (inactive) | 99.8 µM (inactive) | 33.7 µM (inactive) | 6.64 µM (inactive) | > 100 µM (inactive) | 22.7 µM (inactive) | > 100 µM (inactive) | > 100 µM (inactive) | 16 µM (inactive) | 93.5 µM (inactive) | 10.8 µM (inactive) | > 100 µM (inactive) | 11.3 µM (inactive) | 67.6 µM (inactive) | > 100 µM (inactive)
2 | C#CCOCn1cnc2c(Sc3c([N+](=O)[O-])ncn3C)ncnc21 | > 100 µM (inactive) | > 100 µM (inactive) | > 100 µM (inactive) |  |  |  | > 100 µM (inactive) | > 100 µM (inactive) | 48.3 µM (inactive) | > 100 µM (inactive) | > 100 µM (inactive) | > 100 µM (inactive) | > 100 µM (inactive) | > 100 µM (inactive) | > 100 µM (inactive) | > 100 µM (inactive) |  | > 100 µM (inactive) | > 100 µM (inactive) | 
3 | CC12OC3CC(O1)C1(C=O)C4CCC5(C)C(c6ccc(=O)oc6)CCC5(O)C4CCC1(C3)O2 (stereo not given) | 0.207 µM (active) | 0.0986 µM (active) | 0.483 µM (active) |  |  |  | 0.379 µM (active) | 0.177 µM (active) | 0.0479 µM (active) | 0.383 µM (active) | 0.242 µM (active) | 0.177 µM (active) | 0.146 µM (active) | 0.189 µM (active) | 0.0518 µM (active) | 0.104 µM (active) |  | 0.258 µM (active) | 0.103 µM (active) | 
4 | CCOC(=O)C(=O)NNc1nc2c(s1)C(=O)c1ccccc1C2=O | 20.3 µM (inactive) | 5.01 µM (inactive) | 12.4 µM (inactive) | 2.48 µM (inactive) | 2.87 µM (inactive) | 1.87 µM (inactive) | 9.27 µM (inactive) | 1.75 µM (inactive) | 4.49 µM (inactive) | 9.35 µM (inactive) | 2.08 µM (inactive) | 2.58 µM (inactive) | 10.8 µM (inactive) | 1.47 µM (inactive) | 10.7 µM (inactive) | 4.78 µM (inactive) | 17.7 µM (inactive) | 0.544 µM (active) | 4.12 µM (inactive) | 10.9 µM (inactive)
5 | CC(C(=O)c1ccc(O)cc1)C1(O)C(=O)Nc2c(Cl)cc(Cl)cc21 (stereo not given) | > 100 µM (inactive) | 45.4 µM (inactive) | > 100 µM (inactive) |  |  |  | > 87.3 µM (inactive) | 24.8 µM (inactive) | 23.1 µM (inactive) | > 100 µM (inactive) | 26.7 µM (inactive) | 32.9 µM (inactive) | > 100 µM (inactive) | 20.9 µM (inactive) | > 86.1 µM (inactive) | 24.6 µM (inactive) |  | 20.6 µM (inactive) | > 76.9 µM (inactive) | 
6 | NC1=NS(=O)(=O)Nc2nc(-c3ccccc3)c(-c3ccccc3)nc21 |  | > 100 µM (inactive) | > 100 µM (inactive) |  |  |  | > 100 µM (inactive) | > 100 µM (inactive) | > 100 µM (inactive) | > 100 µM (inactive) | > 100 µM (inactive) | > 100 µM (inactive) |  | > 100 µM (inactive) | > 100 µM (inactive) | > 100 µM (inactive) |  | > 100 µM (inactive) | > 100 µM (inactive) | 
7 | COC(=O)C(=C\Sc1ccccc1)/C=C/C(=O)OC(C)(C)C | 3.87 µM (inactive) | 17.4 µM (inactive) | 5.3 µM (inactive) |  |  |  | 11.4 µM (inactive) | 8.32 µM (inactive) | 5.07 µM (inactive) | 15.4 µM (inactive) | 7.78 µM (inactive) | 3.8 µM (inactive) | 19.5 µM (inactive) | 1.48 µM (inactive) | 17.7 µM (inactive) | 2.69 µM (inactive) |  | 10.8 µM (inactive) | 14.9 µM (inactive) | 
8 | COC(=O)/C(C#N)=C1\CCc2ccccc21 | > 100 µM (inactive) | > 100 µM (inactive) | > 100 µM (inactive) |  |  |  | > 100 µM (inactive) | > 100 µM (inactive) | > 100 µM (inactive) | > 100 µM (inactive) | > 100 µM (inactive) | > 100 µM (inactive) |  | > 100 µM (inactive) | > 100 µM (inactive) | > 100 µM (inactive) |  | > 100 µM (inactive) | > 100 µM (inactive) | 
9 | O=C1C(Cl)C(c2cc(Br)ccc2O)N1n1cnc2ccccc2c1=O (stereo not given) | 21.3 µM (inactive) | 16.8 µM (inactive) | 27.7 µM (inactive) |  |  |  | 20.7 µM (inactive) | 6.64 µM (inactive) | 13.2 µM (inactive) | 28.5 µM (inactive) | 11.3 µM (inactive) | 10 µM (inactive) | 13.7 µM (inactive) | 1.72 µM (inactive) | 6.62 µM (inactive) | 28.9 µM (inactive) |  | 10.7 µM (inactive) | 2.53 µM (inactive) | 
10 | CC1=C(/C=C/C(C)=C/C=C/C(C)=C/C(=O)O)C(C)(C)CCC1 [TRETINOIN] | > 70.6 µM (inactive) | 54.8 µM (inactive) | 49.3 µM (inactive) | 50.4 µM (inactive) | > 43 µM (inactive) | 37.3 µM (inactive) | 42.3 µM (inactive) | 31.9 µM (inactive) | 56.9 µM (inactive) | > 68.5 µM (inactive) | 49.4 µM (inactive) | 45.8 µM (inactive) | 49.9 µM (inactive) | 18 µM (inactive) | 48.8 µM (inactive) | > 68.1 µM (inactive) | 55.3 µM (inactive) | > 100 µM (inactive) | > 62.5 µM (inactive) | 37.3 µM (inactive)
11 | Fc1ccc(C2SCc3nc4ccccc4n32)c(F)c1 (stereo not given) | > 100 µM (inactive) | 39.4 µM (inactive) | > 100 µM (inactive) |  |  |  | 46.3 µM (inactive) | 81.5 µM (inactive) | 30.1 µM (inactive) | 67.6 µM (inactive) | 73.1 µM (inactive) | > 100 µM (inactive) | > 100 µM (inactive) | 22 µM (inactive) | 54 µM (inactive) | 98.4 µM (inactive) |  | 65.5 µM (inactive) | > 100 µM (inactive) | 
12 | CCc1nc2c(O)ccc(O)c2nc1C | 18.1 µM (inactive) | 20 µM (inactive) | 2.53 µM (inactive) |  |  |  | 17 µM (inactive) | 16.2 µM (inactive) | 2.56 µM (inactive) | 19.3 µM (inactive) | 15 µM (inactive) | 2.15 µM (inactive) | 18 µM (inactive) | 2.93 µM (inactive) | 19.2 µM (inactive) | 11.5 µM (inactive) |  | 7.35 µM (inactive) | 18.7 µM (inactive) | 
13 | Cn1ccc(=NS(=O)(=O)c2ccccc2)cc1 |  | > 100 µM (inactive) | > 100 µM (inactive) |  |  |  | > 100 µM (inactive) | > 100 µM (inactive) | > 100 µM (inactive) | > 100 µM (inactive) |  | > 100 µM (inactive) | > 100 µM (inactive) | > 100 µM (inactive) | > 100 µM (inactive) | > 100 µM (inactive) |  | > 100 µM (inactive) | > 100 µM (inactive) | 
14 | CC(C)(Br)C(=O)C(Br)Br | 1.95 µM (inactive) | 18.7 µM (inactive) | 2.74 µM (inactive) | 5.56 µM (inactive) | 6.89 µM (inactive) | 4.82 µM (inactive) | 16.8 µM (inactive) | 4.86 µM (inactive) | 1.67 µM (inactive) | 16.8 µM (inactive) | 2.44 µM (inactive) | 1.89 µM (inactive) | > 42.3 µM (inactive) | 1.9 µM (inactive) | 18.1 µM (inactive) | 3.16 µM (inactive) | 33.7 µM (inactive) | 6.01 µM (inactive) | 14 µM (inactive) | 4.9 µM (inactive)
15 | Nc1ccn(C2CCC(CO)O2)c(=O)n1 (stereo not given) | > 100 µM (inactive) | > 100 µM (inactive) | > 100 µM (inactive) | > 1000 µM (inactive) | > 1000 µM (inactive) | 159 µM (inactive) | > 100 µM (inactive) | > 100 µM (inactive) | 656 µM (inactive) | > 100 µM (inactive) | > 1000 µM (inactive) | > 94.8 µM (inactive) | > 100 µM (inactive) | 698 µM (inactive) | > 100 µM (inactive) | > 100 µM (inactive) | 719 µM (inactive) | > 100 µM (inactive) | > 62.8 µM (inactive) | > 1000 µM (inactive)
